What was measured:
[1] = biological target: T1, human muscarinic M4 receptor (Homo sapiens, UniProt P08173); assay: Alphascreen Surefire phospho-ERK1/2 functional assay, M4; type: cell-based; details: for EC50: CHO cells stably expressing human M4, phospho-ERK1/2, * = variable results, read-out: pEC50 M4 (converted); for Emax: CHO, read-out: % Emax cf. ACh, M4, CHO cells stably expressing human M4, relative to ACh; for selectivity for the M4 receptor relative to the M1 receptor: functional assay of Example A
T1 construct: expressed in transfected cells
T1 sequence (P08173 1-479): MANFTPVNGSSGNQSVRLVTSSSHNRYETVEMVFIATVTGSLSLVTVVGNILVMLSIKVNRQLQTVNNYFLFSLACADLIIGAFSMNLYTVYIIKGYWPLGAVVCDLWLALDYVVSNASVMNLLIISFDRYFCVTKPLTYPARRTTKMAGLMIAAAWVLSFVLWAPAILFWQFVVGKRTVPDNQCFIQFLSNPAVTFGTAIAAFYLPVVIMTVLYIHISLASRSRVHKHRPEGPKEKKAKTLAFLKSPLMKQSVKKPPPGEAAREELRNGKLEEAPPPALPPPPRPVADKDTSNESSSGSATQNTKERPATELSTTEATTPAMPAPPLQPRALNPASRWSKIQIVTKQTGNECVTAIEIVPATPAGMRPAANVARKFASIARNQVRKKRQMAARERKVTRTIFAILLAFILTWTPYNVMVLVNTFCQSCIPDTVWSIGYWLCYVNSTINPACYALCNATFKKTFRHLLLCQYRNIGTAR
Protocol: CHO cells stably expressing the human muscarinic M1, M2, M3 or M4 receptor were plated (25K/well) onto 96-well tissue culture plates in MEM-alpha+10% dialysed FBS. Once adhered, cells were serum-starved overnight. Agonist stimulation was performed by the addition of 5 μL agonist to the cells for 5 min (37° C.). Media was removed and 50 μL of lysis buffer added. After 15 min, a 4 μL sample was transferred to 384-well plate and 7 μL of detection mixture added. Plates were incubated for 2 h with gentle agitation in the dark and then read on a PHERAstar plate reader.
pEC50 and Emax figures were calculated from the resulting data for each receptor subtype.

[2] = biological target: T2, human muscarinic M1 receptor (Homo sapiens, UniProt P11229); assay: Alphascreen Surefire phospho-ERK1/2 functional assay, M1; type: cell-based; details: for EC50: CHO cells stably expressing human M1, phospho-ERK1/2, * = variable results, read-out: pEC50 M1 (converted); for Emax: CHO, read-out: % Emax cf. ACh, M1, CHO cells stably expressing human M1, relative to ACh
T2 sequence (P11229 1-460): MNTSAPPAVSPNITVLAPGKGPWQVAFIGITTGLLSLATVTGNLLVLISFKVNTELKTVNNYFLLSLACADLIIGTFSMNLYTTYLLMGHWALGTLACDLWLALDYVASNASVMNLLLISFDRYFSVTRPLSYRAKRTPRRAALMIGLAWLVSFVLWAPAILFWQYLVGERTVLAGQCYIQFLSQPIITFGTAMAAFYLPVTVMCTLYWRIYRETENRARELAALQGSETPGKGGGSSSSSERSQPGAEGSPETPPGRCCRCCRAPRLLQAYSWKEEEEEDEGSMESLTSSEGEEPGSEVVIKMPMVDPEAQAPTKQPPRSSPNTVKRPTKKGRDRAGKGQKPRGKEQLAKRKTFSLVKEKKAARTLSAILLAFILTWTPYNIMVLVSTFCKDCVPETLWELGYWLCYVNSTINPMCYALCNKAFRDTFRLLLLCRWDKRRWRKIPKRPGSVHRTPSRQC

Q: How did the EC50 [1] turn out when `COC(=O)N1CCC2(CC(N3CCC(c4ccnn4C)CC3)C2)C1` (mixture of isomers) [1-20 Mixture of diastereomers, methyl 2-[4-(1-methyl-1H-pyrazol-5-yl)piperidin-1-yl]-6-azaspiro[3.4]octane-6-carboxylate] was run?
A: The EC50 was 1000 nM.

Q: And the Emax [1]?
A: The Emax was 56%.

Q: What about the EC50 [2] of the same compound?
A: Its EC50 is > 20000 nM.

Q: What about the Emax [2] of the same compound?
A: Its Emax is 62%.

Q: With `CCOC(=O)N1CCC2(CC(N3CCC(c4nc(C(F)(F)F)c[nH]4)CC3)C2)C1` (single isomer, unassigned) [1-3 Isomer 2, ethyl 2-(4-(4-(trifluoromethyl)-1H-imidazol-2-yl)piperidin-1-yl)-6-azaspiro[3.4]octane-6-carboxylate] as the compound, how does the EC50 [1] read?
A: The EC50 was 200 nM.

Q: And the Emax [1]?
A: Its Emax is 41%.

Q: And the EC50 [2]?
A: Its EC50 is 501 nM.

Q: And the Emax [2]?
A: Its Emax is 30%.

Q: `CCOC(=O)N1CCC2(CC(N3CCC(c4nc(C#N)c[nH]4)CC3)C2)C1` (single isomer, unassigned) [1-4 Isomer 2, ethyl 2-[4-(4-cyano-1H-imidazol-2-yl)piperidin-1-yl]-6-azaspiro[3.4]octane-6-carboxylate] was tested. Which EC50 [1] did it give?
A: The EC50 was 251 nM.

Q: And the Emax [1]?
A: The Emax was 67%.

Q: What about the EC50 [2] of the same compound?
A: The EC50 was 1000 nM.

Q: What about the Emax [2] of the same compound?
A: Its Emax is 55%.

Q: `COC(=O)N1CCC2(CC(N3CCC(c4ncc(C)n4C)CC3)C2)C1` (single isomer, unassigned) [1-9 Isomer 2, methyl 2-[4-(1,5-dimethyl-1H-imidazol-2-yl)piperidin-1-yl]-6-azaspiro[3.4]octane-6-carboxylate] was tested. Which EC50 [1] did it give?
A: Its EC50 is 794 nM.

Q: What about the Emax [1] of the same compound?
A: The Emax was 48%.

Q: And the EC50 [2]?
A: The EC50 was > 20000 nM.

Q: And the Emax [2]?
A: The Emax was 57%.

Q: Which EC50 [1] does the source give for `CCOC(=O)N1CCC2(CC(N3CCC(c4ncc(C)n4C)CC3)C2)C1` (single isomer, unassigned) [1-10 Isomer 2, ethyl 2-[4-(1,5-dimethyl-1H-imidazol-2-yl)piperidin-1-yl]-6-azaspiro[3.4]octane-6-carboxylate] here?
A: The EC50 was 251 nM.

Q: And the Emax [1]?
A: Its Emax is 106%.

Q: And the EC50 [2]?
A: The EC50 was 5010 nM.

Q: What about the Emax [2] of the same compound?
A: Its Emax is 62%.

Q: Which results are given for `COC(=O)N1CCC2(CC(N3CCC(c4nc(C)cn4C)CC3)C2)C1` (single isomer, unassigned) [1-11 Isomer 2, methyl 2-[4-(1,4-dimethyl-1H-imidazol-2-yl)piperidin-1-yl]-6-azaspiro[3.4]octane-6-carboxylate]?
A: EC50 [1]: 251 nM; Emax [1]: 85%; EC50 [2]: 1580 nM; Emax [2]: 98%

Q: With `COC(=O)N1CCC2(CC(N3CCC(c4ncc(Cl)n4C)CC3)C2)C1` (single isomer, unassigned) [1-13 Isomer 2, methyl 2-[4-(5-chloro-1-methyl-1H-imidazol-2-yl)piperidin-1-yl]-6-azaspiro[3.4]octane-6-carboxylate] as the compound, how does the EC50 [1] read?
A: Its EC50 is 398 nM.

Q: And the Emax [1]?
A: The Emax was 86%.

Q: What about the EC50 [2] of the same compound?
A: The EC50 was 1580 nM.

Q: And the Emax [2]?
A: The Emax was 61%.

Q: Which “selectivity for the M4 receptor relative to the M1 receptor” value [1] does the source give for `COC(=O)N1CCC2(CC(N3CCC(c4nccn4C)CC3)C2)C1` (centres unmarked) [Example 1-6, methyl 2-[4-(1-methyl-1H-imidazol-2-yl)piperidin-1-yl]-6-azaspiro[3.4]octane-6-carboxylate] here?
A: The value was “highly selective for the M4 receptor relative to the M1 receptor”.

Q: Which “selectivity for the M4 receptor relative to the M1 receptor” value [1] does the source give for `COC(=O)N1CCC2(CC(N3CCC(c4ncc(C)n4C)CC3)C2)C1` (centres unmarked) [Example 1-9, methyl 2-[4-(1,5-dimethyl-1H-imidazol-2-yl)piperidin-1-yl]-6-azaspiro[3.4]octane-6-carboxylate] here?
A: The value was “highly selective for the M4 receptor relative to the M1 receptor”.

Q: `CCOC(=O)N1CCC2(CC(N3CCC(c4ccnn4C)CC3)C2)C1` (centres unmarked) [Example 1-21, ethyl 2-[4-(1-methyl-1H-pyrazol-5-yl)piperidin-1-yl]-6-azaspiro[3.4]octane-6-carboxylate] was tested. Which “selectivity for the M4 receptor relative to the M1 receptor” value [1] did it give?
A: Its value is “highly selective for the M4 receptor relative to the M1 receptor”.

Q: With `CCOC(=O)N1CCC2(CC(N3CCC([C@@H]4CCCN4C(=O)NC)CC3)C2)C1` (stereo partly drawn) [Example 2-17, ethyl 2-{4-[(2S)-1-(methylcarbamoyl)pyrrolidin-2-yl]piperidin-1-yl}-6-azaspiro[3.4]octane-6-carboxylate] as the compound, how does the “selectivity for the M4 receptor relative to the M1 receptor” value [1] read?
A: Its value is “highly selective for the M4 receptor relative to the M1 receptor”.
